Key:
Experiment in all cases: relative viability (nuclei count vs DMSO), 5 days (fraction); higher = more cells survive
Vandetanib + Trametinib = compound: COc1cc2/c(=N/c3ccc(Br)cc3F)nc[nH]c2cc1OCC1CCN(C)CC1 [Vandetanib] + CC(=O)Nc1cccc(-n2c(=O)n(C3CC3)c(=O)c3c(Nc4ccc(I)cc4F)n(C)c(=O)c(C)c32)c1 [Trametinib] (partner 0.02 µM)
Procedure, shortened: (§1)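 Values are medians from duplicate plates. Each reflects relative viability, defined as the nuclei count of treated wells over that of vehicle wells. Lung cancer cell lines in 1536-well plates were pin-tool dosed one day after seeding with one drug alone or with a fixed anchor-drug dose plus five library-drug doses (not always all listed) in √10 steps, then fixed, stained and imaged at 4× after 5 days.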

NVP-TAE684 + Decitabine = compound: COc1cc(N2CCC(N3CCN(C)CC3)CC2)ccc1Nc1ncc(Cl)c(Nc2ccccc2S(=O)(=O)C(C)C)n1 [NVP-TAE684] + Nc1ncn([C@H]2C[C@H](O)[C@@H](CO)O2)c(=O)n1 [Decitabine] (partner 2 µM)
Procedure, shortened: as §1

[1] = compound: C1=CC=C2C(=C1)N=C(S2)C(C#N)C3=NC(=NC=C3)NCCC4=CN=CC=C4 + CCNC(=O)c1noc(-c2cc(C(C)C)c(O)cc2O)c1-c1ccc(CN2CCOCC2)cc1 [Luminespib] (partner 0.01 µM)
Procedure, shortened: as §1

[2] = compound: C1=CC=C2C(=C1)N=C(S2)C(C#N)C3=NC(=NC=C3)NCCC4=CN=CC=C4 + CS(=O)(=O)CCNCc1ccc(-c2ccc3ncnc(Nc4ccc(OCc5cccc(F)c5)c(Cl)c4)c3c2)o1 [Lapatinib] (partner 2 µM)
Procedure, shortened: as §1

Row | Cell Line | relative viability (Vandetanib + Trametinib; first compound 0.02 µM) | relative viability (Vandetanib + Trametinib; first compound 0.06325 µM) | relative viability (Vandetanib + Trametinib; first compound 0.2 µM) | relative viability (Vandetanib + Trametinib; first compound 0.6325 µM) | relative viability (Vandetanib + Trametinib; first compound 2 µM) | relative viability (NVP-TAE684 + Decitabine; first compound 0.2 µM) | relative viability (NVP-TAE684 + Decitabine; first compound 0.6325 µM) | relative viability (NVP-TAE684 + Decitabine; first compound 2 µM) | relative viability ([1]; first compound 0.005 µM) | relative viability ([1]; first compound 0.01581 µM) | relative viability ([1]; first compound 0.05 µM) | relative viability ([1]; first compound 0.1581 µM) | relative viability ([1]; first compound 0.5 µM) | relative viability ([2]; first compound 0.005 µM) | relative viability ([2]; first compound 0.01581 µM) | relative viability ([2]; first compound 0.05 µM) | relative viability ([2]; first compound 0.1581 µM) | relative viability ([2]; first compound 0.5 µM)
1 | NCI-H1915 | 0.29 | 0.291 | 0.29 | 0.329 | 0.292 | 0.284 | 0.263 | 0.257 | 0.464 | 0.933 | 0.826 | 0.876 | 0.601 | 0.681 | 0.975 | 1.01 | 1.14 | 0.835
2 | NCI-H1944 | 0.456 | 0.427 | 0.425 | 0.402 | 0.369 | 0.437 | 0.519 | 0.413 | 0.739 | 0.854 | 0.558 | 0.636 | 0.759 | 0.89 | 0.847 | 0.746 | 0.977 | 0.819
3 | NCI-H1975 | 0.356 | 0.344 | 0.378 | 0.35 | 0.365 | 0.401 | 0.389 | 0.36 | – | 0.202 | 0.246 | 0.171 | 0.225 | 0.554 | 0.91 | 0.831 | 0.908 | 0.62
4 | NCI-H1993 | 0.568 | 0.552 | 0.499 | 0.545 | 0.494 | 0.618 | 0.629 | 0.501 | 0.846 | 0.852 | 0.821 | 0.834 | 0.738 | 0.652 | 0.779 | 0.824 | 0.747 | 0.809
5 | NCI-H2009 | 0.263 | 0.252 | 0.286 | 0.282 | 0.275 | 0.372 | 0.34 | 0.345 | 1.1 | 1.09 | 1.05 | 1.07 | 1.05 | 0.899 | 0.892 | 0.977 | 1.11 | 1.02
6 | NCI-H2023 | 0.498 | 0.507 | – | 0.556 | 0.49 | 0.238 | 0.199 | 0.0999 | 0.994 | 1 | 0.901 | 1.03 | 0.765 | 0.793 | 0.85 | 0.793 | 1.2 | 0.711
7 | NCI-H2085 | 0.549 | 0.499 | 0.5 | 0.593 | 0.484 | 0.533 | 0.458 | 0.458 | 0.439 | 0.368 | 0.4 | 0.388 | 0.413 | 0.83 | 0.737 | 0.763 | 0.891 | 0.761
8 | NCI-H2087 | 0.211 | 0.221 | 0.23 | 0.213 | 0.2 | 0.305 | 0.261 | 0.192 | 0.163 | 0.159 | 0.222 | 0.2 | 0.15 | 1.05 | 0.898 | 1.03 | 1.14 | 0.966
9 | NCI-H2126 | 0.58 | 0.546 | 0.556 | 0.502 | 0.504 | 0.56 | 0.603 | 0.459 | 0.561 | 0.87 | 0.73 | 0.997 | 0.836 | 0.75 | 0.718 | 0.721 | 0.873 | 0.685
10 | NCI-H2170 | 0.905 | 0.875 | 0.931 | 0.896 | 0.858 | 0.472 | 0.477 | 0.418 | 0.702 | 0.803 | 0.621 | 1.01 | 0.894 | – | 0.258 | 0.249 | 0.285 | 0.259
11 | NCI-H2347 | 0.28 | 0.278 | 0.254 | 0.283 | 0.28 | 0.602 | 0.679 | 0.571 | 0.811 | 0.355 | 0.381 | 0.488 | 0.363 | 1.08 | 0.909 | 0.846 | 1.04 | 0.91
12 | NCI-H2405 | 0.63 | 0.458 | 0.714 | 0.653 | 0.616 | 0.684 | 0.683 | 0.397 | 0.708 | 0.638 | 0.654 | 0.655 | 0.809 | 1.05 | 0.817 | 1.11 | 1.11 | 1.02
13 | NCI-H3122 | 0.208 | 0.186 | 0.113 | 0.259 | 0.204 | 0.152 | 0.109 | 0.103 | 0.0736 | 0.0973 | 0.553 | 0.0763 | 0.0863 | 1.01 | 1 | 1.06 | 1 | 1.03
14 | PC-3 [JPC-3] | 0.682 | 0.577 | 0.584 | 0.513 | 0.435 | 0.846 | 0.73 | 0.75 | 0.681 | 0.71 | 0.693 | 0.724 | 0.561 | 0.439 | 0.441 | 0.423 | 0.484 | 0.429
15 | PC-14 | 0.725 | 0.51 | 0.071 | 0.109 | 0.0866 | 0.217 | 0.191 | 0.0633 | 0.197 | – | 0.117 | 0.119 | 0.155 | 0.305 | 0.331 | 0.303 | 0.454 | 0.296
16 | RERF-LC-KJ | 0.808 | 0.933 | 0.528 | 0.831 | 0.688 | 0.689 | 0.574 | 0.3 | 0.935 | 0.982 | 1.4 | 1.18 | 1.06 | 0.982 | 0.934 | 0.77 | 0.883 | 0.732
17 | SK-LU-1 | 0.453 | 0.344 | 0.562 | 0.567 | 0.458 | 0.58 | 0.658 | 0.602 | 0.185 | 0.194 | 0.187 | 0.223 | 0.197 | – | 0.856 | 0.934 | 1.18 | 0.832
18 | SK-MES-1 | 0.593 | 0.464 | 0.304 | 0.405 | 0.357 | 0.41 | 0.335 | 0.305 | 1.16 | 0.937 | 0.669 | 0.962 | 0.85 | 0.455 | 0.542 | 0.408 | 0.473 | 0.445
19 | SW 1573 | 0.59 | 0.568 | – | 0.598 | 0.615 | 0.526 | 0.497 | 0.104 | 0.317 | 0.292 | 0.221 | 0.275 | 0.193 | 1.12 | 1.13 | 1.04 | 1.35 | 1.12
